Reference: ChEMBL document CHEMBL1201862, “PubChem BioAssay data set” (2004)
The source made the active and inactive calls.

Assays:
[1] = molecular target: Dual specificity protein phosphatase 3 (Homo sapiens, UniProt P51452); test: SAR VHR1 Fluorescent Assay for In Vitro dose response studies Set 3. [Related pubchem assays (depositor defined):AID1654, AID1661, AID1878]; format: functional
Escherichia coli = test: microbe, parasite or virus in culture
[2] = NIH-3T3 fibroblast cytotoxicity, dose response, cytotoxicity control, cell-based, fluorescence, Alamar Blue, secondary assay (AID 2327); format: functional;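 note: NIH-3T3 mouse fibroblasts cultured with fluconazole at 8 µg/mL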
Streptococcus = test: Group A Streptococcus viability loss, dose response, counter-screen for streptokinase expression inhibitor project, luminescence, BacTiterGlo (AID 1915); format: functional, organism-based;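 note: potency for reduction of bacterial viability or growth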
Phospholipase A2 = Phospholipase A2 (Homo sapiens, UniProt P04054); format: functional;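 note: confirmatory dose-response counterscreen on phospholipase A2, testing hits that came from an ultra-high-throughput screen for ATG4B inhibitors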
Chain of Phospholipase A2 (P04054 whole entry): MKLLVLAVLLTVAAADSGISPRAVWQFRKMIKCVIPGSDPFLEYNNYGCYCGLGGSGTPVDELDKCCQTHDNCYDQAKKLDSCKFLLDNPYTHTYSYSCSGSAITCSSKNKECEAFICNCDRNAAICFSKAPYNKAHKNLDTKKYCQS

[3] = system: Streptococcus sp. 'group A'; test: growth inhibition of control SK(-) GAS strain, dose response, counter-screen for streptokinase expression inhibitor project, luminescence, kanamycin, BacTiterGlo, confirmation (AID 1900); format: functional, organism-based
Cysteine protease ATG4B = Cysteine protease ATG4B (Homo sapiens, UniProt Q9Y4P1); format: functional;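 note: Fluorescence-based dose-response confirmation assay measuring inhibition of ATG4B activity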
Chain of Cysteine protease ATG4B (Q9Y4P1 whole entry): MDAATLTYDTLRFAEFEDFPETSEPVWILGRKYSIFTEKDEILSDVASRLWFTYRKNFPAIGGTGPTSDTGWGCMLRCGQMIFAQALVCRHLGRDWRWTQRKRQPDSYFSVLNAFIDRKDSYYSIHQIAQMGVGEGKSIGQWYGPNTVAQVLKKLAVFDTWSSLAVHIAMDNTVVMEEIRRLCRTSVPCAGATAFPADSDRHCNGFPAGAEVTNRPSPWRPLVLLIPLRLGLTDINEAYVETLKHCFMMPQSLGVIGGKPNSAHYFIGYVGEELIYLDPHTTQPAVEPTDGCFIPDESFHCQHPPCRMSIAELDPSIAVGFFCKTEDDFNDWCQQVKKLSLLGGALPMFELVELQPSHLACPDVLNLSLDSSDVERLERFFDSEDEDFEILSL

Streptokinase A = molecular target: T1, Streptokinase A (Streptococcus pyogenes serotype M1, UniProt P10520); test: S. pyogenes streptokinase expression inhibitors, potency, dose response, plasminogen activation absorbance, OD405 (AID 1914); format: functional, Streptococcus pyogenes M1 GAS;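 note: secreted streptokinase activity via plasminogen activation per viability signal from cell pellet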
T1 sequence (P10520 whole entry): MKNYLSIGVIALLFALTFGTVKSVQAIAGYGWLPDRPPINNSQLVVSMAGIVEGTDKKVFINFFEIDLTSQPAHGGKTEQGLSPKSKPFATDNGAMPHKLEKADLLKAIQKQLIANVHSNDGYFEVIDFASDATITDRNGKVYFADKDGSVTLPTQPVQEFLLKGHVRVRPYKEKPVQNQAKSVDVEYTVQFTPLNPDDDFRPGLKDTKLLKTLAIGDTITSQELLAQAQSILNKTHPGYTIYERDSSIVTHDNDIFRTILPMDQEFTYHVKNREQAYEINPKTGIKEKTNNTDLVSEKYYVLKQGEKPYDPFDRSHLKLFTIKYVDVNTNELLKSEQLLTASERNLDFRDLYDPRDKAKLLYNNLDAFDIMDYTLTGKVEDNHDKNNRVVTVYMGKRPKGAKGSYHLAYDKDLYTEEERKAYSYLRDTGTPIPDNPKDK

[4] = C. albicans growth with fluconazole, confirmation, fluorescence, retest (AID 2467); format: functional, cell-based
Cytochrome P450 2D6 = Cytochrome P450 2D6 (Homo sapiens, UniProt P10635);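 note: CYP2D6 member of a cytochrome P450 panel assay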
Chain of Cytochrome P450 2D6 (P10635 whole entry): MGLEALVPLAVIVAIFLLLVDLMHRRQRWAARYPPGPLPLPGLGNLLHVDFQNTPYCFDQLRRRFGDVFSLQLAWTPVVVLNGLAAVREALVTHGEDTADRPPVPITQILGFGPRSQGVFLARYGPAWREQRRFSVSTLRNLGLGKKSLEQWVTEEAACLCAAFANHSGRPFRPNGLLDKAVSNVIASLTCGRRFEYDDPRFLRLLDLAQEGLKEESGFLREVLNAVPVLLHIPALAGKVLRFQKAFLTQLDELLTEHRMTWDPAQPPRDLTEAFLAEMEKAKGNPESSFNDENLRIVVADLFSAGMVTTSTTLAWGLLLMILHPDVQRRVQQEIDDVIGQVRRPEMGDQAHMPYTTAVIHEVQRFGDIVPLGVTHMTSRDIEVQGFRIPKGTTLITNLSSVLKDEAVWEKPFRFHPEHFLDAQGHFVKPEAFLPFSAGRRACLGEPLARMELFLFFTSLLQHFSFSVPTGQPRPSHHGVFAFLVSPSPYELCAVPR

Cytochrome P450 2C19 = Cytochrome P450 2C19 (Homo sapiens, UniProt P33261); test: Cytochrome panel assay with activity outcomes. Panel member name: p450-cyp2c19 Compounds with AC50 equal or less than 10 uM are considered active; format: functional; conditions: read-out: AC50
Chain of Cytochrome P450 2C19 (P33261 whole entry): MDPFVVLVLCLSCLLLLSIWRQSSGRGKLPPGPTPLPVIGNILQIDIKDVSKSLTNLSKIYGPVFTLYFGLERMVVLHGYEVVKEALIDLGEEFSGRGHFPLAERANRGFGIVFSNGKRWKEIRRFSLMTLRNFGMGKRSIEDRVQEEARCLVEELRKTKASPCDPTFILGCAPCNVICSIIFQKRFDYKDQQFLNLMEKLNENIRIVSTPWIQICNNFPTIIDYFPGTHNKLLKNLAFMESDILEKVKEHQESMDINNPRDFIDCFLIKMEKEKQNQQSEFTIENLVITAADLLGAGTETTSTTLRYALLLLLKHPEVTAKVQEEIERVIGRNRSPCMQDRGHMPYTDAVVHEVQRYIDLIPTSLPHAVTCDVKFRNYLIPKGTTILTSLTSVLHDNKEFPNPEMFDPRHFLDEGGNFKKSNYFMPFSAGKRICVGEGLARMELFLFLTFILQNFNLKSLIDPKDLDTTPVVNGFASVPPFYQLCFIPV

[5] = cytotoxicity in HEK-293T NF-kB-Luc cells, dose response, cytotoxicity control for B/T-cell NF-kB inhibitor project, cell-based, uHTS hits (AID 489019); format: functional;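 note: IC50 reflects cytotoxicity as loss of cell viability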
Jurkat [6] = test: antigen receptor-induced NF-kB inhibitors, dose response, Jurkat, luciferase reporter, luminescence, B- and T-cell (AID 489004); format: functional, cell-based; conditions: Homo sapiens;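 note: NF-kB luciferase reporter Jurkat cells stimulated with PMA plus ionomycin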
[7] = molecular target: T2, Type-1 angiotensin II receptor (Homo sapiens, UniProt P30556); test: AT1 receptor antagonists, dose response, selectivity assay for APJ receptor antagonist project, cell-based, uHTS hits (AID 463214); format: functional;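 note: antagonist potency against angiotensin II stimulated AT1 response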
T2 sequence (P30556 whole entry): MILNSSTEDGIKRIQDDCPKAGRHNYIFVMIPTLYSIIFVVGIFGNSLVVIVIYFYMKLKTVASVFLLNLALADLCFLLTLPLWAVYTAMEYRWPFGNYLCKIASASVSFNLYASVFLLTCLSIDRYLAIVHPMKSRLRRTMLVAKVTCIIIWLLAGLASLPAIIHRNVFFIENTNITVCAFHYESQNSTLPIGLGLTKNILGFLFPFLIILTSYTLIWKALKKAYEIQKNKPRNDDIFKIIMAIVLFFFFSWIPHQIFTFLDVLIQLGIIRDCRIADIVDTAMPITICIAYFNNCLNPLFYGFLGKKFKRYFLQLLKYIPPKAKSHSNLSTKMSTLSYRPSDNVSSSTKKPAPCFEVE

Beta-galactosidase = Beta-galactosidase (Escherichia coli, UniProt Q8VNN2); test: PubChem AID 485352; format: functional
[8] = molecular target: T3, Alkaline phosphatase, tissue-nonspecific isozyme (Homo sapiens, UniProt P05186); test: inhibition of tissue-nonspecific alkaline phosphatase – biochemical, dose response (AID 488882); format: functional
T3 sequence (P05186 whole entry): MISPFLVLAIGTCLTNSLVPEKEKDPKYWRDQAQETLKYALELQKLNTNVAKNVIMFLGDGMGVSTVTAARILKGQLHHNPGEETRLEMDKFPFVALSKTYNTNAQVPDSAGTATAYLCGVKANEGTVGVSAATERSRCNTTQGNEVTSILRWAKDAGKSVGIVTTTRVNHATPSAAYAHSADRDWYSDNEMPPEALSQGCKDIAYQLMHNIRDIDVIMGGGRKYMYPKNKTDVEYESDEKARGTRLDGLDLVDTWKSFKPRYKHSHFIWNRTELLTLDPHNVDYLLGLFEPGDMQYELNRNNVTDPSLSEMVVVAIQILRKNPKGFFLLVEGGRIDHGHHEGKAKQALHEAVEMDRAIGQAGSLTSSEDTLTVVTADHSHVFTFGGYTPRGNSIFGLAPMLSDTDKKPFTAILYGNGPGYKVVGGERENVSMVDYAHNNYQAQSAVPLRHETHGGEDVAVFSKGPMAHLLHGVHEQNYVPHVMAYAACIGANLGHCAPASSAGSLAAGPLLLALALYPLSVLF

[9] = cytotoxicity toward DRD oncogenic fibroblasts, dose response, cell-based, non-viral oncogenic, luminescence (AID 1934); format: functional; conditions: Homo sapiens
BJ [10] = test: cytotoxicity toward BJ-TERT fibroblasts, dose response, cell-based, RAS-independent, luminescence (AID 1933); format: functional; conditions: Homo sapiens
BJ [11] = test: cytotoxicity toward BJ-TERT-LT-ST fibroblasts, dose response, cell-based, RAS-independent, luminescence (AID 1935); format: functional; conditions: Homo sapiens;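 note: BJ fibroblasts immortalized with TERT plus LT and ST oncogenes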
[12] = molecular target: T4, Intestinal-type alkaline phosphatase (Homo sapiens, UniProt P09923); test: human IAP inhibitors, dose response, biochemical, luminescent, uHTS hits, set 2 (AID 488793); format: functional
T4 sequence (P09923 whole entry): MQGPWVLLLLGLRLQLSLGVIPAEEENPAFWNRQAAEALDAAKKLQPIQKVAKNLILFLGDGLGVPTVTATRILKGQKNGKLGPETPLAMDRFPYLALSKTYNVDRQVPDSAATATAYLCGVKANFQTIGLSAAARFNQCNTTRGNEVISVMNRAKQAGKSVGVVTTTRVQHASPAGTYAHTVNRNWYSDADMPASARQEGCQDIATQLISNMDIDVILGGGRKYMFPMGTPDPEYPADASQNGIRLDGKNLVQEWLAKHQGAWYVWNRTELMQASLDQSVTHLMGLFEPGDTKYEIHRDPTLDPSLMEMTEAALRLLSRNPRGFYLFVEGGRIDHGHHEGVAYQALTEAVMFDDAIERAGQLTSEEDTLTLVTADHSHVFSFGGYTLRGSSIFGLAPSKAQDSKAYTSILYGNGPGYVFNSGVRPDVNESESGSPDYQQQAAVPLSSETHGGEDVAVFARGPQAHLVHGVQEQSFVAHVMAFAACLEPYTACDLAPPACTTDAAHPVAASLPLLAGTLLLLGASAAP

[13] = molecular target: T4, Intestinal-type alkaline phosphatase; test: Dose Response confirmation of uHTS hits from a small molecule inhibitors of human intestinal alkaline phosphatase via a luminescent assay. [Related pubchem assays (depositor defined):AID2544, AID2574]; format: functional
[14] = molecular target: G-protein coupled receptor 55 (Homo sapiens, UniProt Q9Y2T6); test: GPR55 agonists via beta-arrestin recruitment, primary screen, imaging, U2OS cells, beta-arrestin-GFP redistribution (AID 1961); format: functional
Chain of G-protein coupled receptor 55 (Q9Y2T6 whole entry): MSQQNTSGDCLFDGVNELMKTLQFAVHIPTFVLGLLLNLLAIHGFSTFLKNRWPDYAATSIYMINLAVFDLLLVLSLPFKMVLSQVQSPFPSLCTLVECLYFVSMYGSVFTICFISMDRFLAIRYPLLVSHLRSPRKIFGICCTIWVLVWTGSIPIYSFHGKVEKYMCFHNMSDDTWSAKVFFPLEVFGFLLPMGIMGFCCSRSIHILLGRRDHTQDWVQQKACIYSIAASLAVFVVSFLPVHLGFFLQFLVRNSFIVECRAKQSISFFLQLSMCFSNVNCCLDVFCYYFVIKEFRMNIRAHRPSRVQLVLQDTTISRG

BJ [15] = test: cells; format: functional, cell-based; conditions: Homo sapiens
[16] = molecular target: Intestinal-type alkaline phosphatase (Mus musculus, UniProt P24822); test: PubChem AID 488874; format: functional
Chain of Intestinal-type alkaline phosphatase (Mus musculus, UniProt P24822) (P24822 whole entry): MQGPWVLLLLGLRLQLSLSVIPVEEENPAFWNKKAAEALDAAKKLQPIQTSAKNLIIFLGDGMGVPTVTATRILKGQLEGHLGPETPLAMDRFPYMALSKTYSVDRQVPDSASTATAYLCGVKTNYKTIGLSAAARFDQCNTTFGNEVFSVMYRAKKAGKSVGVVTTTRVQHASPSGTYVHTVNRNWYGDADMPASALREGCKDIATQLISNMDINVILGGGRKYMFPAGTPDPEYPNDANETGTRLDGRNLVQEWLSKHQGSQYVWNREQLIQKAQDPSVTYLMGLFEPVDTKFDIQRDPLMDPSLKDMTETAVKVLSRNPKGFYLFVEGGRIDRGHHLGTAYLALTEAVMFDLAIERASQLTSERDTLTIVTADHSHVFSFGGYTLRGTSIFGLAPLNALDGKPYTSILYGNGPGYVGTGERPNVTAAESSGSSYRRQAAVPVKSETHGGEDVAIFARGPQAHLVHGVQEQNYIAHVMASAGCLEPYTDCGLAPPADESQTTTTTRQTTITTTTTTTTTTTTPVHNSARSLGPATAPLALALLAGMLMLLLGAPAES

Cytochrome P450 3A4 = Cytochrome P450 3A4 (Homo sapiens, UniProt P08684);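 note: CYP3A4 tested as one member of a cytochrome P450 panel screen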
Chain of Cytochrome P450 3A4 (P08684 whole entry): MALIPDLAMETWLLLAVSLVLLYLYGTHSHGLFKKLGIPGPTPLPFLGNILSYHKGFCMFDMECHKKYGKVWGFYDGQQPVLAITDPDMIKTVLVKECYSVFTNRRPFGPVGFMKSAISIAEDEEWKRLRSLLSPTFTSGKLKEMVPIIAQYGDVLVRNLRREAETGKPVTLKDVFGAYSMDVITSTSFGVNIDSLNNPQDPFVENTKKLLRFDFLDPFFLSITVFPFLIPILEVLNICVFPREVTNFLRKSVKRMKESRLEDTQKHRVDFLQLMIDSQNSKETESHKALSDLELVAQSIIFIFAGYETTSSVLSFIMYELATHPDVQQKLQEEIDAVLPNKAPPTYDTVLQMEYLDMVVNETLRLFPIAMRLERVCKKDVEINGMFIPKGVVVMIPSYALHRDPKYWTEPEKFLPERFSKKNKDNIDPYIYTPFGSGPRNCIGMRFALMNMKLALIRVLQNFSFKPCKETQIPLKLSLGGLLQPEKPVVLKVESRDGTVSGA

Jurkat [17] = test: SAR Analysis of small molecule inhibitors of […] specific antigen receptor-induced NF-kB activation in a Jurkat cell line using a luminescence assay - Set 3. [Related pubchem assays (depositor defined):AID435022, AID435025, AID465]; format: functional, cell-based; conditions: Homo sapiens
HEK293 [18] = test: cytotoxicity in HEK293T NF-kB-Luc cells, SAR follow-up, cytotoxicity control for NF-kB activator project, cell-based, resazurin fluorescence (AID 493251); format: functional; conditions: Homo sapiens
HEK293 [19] = test: SAR Analysis of small molecule inhibitors of B-cell specific antigen receptor-induced NF-kB activation in a HEK-293T cell line using a luminescence assay - Set 2. [Related pubchem assays (depositor defined):AID435022, AID435025, AID489021]; format: functional, cell-based; conditions: Homo sapiens
[20] = molecular target: T5, Dual specificity protein phosphatase 6 (Rattus norvegicus, UniProt Q64346)
T5 sequence (Q64346 whole entry): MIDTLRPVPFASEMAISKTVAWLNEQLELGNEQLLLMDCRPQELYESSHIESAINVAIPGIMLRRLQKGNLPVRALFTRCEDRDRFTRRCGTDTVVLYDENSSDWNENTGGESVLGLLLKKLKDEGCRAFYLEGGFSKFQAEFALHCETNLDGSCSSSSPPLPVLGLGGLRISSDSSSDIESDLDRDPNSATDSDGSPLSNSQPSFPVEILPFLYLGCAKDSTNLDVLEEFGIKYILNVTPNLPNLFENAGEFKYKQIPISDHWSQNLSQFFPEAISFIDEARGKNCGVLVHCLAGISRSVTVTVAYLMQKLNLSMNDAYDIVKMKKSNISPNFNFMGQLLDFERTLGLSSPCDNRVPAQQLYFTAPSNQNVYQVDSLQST

[21] = molecular target: T6, Tyrosine-protein phosphatase non-receptor type 7 (Homo sapiens, UniProt P35236); format: functional
T6 sequence (P35236 whole entry): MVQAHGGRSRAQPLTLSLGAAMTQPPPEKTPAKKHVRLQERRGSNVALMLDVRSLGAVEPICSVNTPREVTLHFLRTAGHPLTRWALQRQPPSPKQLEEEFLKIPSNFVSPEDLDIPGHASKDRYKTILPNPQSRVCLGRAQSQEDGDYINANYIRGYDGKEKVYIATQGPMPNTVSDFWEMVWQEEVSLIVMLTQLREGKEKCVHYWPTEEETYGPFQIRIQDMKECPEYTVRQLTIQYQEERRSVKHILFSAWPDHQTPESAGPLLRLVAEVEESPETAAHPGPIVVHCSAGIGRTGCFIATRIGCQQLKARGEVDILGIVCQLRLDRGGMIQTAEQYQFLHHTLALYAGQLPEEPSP

[22] = molecular target: Glyceraldehyde-3-phosphate dehydrogenase (Homo sapiens, UniProt P04406)
Chain of Glyceraldehyde-3-phosphate dehydrogenase (P04406 whole entry): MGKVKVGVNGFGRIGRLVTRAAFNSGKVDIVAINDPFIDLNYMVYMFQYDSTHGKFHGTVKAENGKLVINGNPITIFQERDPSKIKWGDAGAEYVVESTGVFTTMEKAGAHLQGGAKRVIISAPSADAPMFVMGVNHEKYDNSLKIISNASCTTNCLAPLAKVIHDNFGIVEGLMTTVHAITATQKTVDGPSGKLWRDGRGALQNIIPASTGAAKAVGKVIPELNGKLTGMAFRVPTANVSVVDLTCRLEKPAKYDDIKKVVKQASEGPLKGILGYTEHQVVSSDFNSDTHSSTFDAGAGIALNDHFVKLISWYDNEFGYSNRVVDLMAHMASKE

[23] = molecular target: T5, Dual specificity protein phosphatase 6; format: functional
[24] = molecular target: UDP-galactopyranose mutase (Mycobacterium tuberculosis, UniProt P9WIQ1); test: Inhibitors of Mycobacterium tuberculosis UDP-galactopyranose mutase (UGM) enzyme Measured in Biochemical System Using Plate Reader - 2105-02_Inhibitor_Dose_CherryPick_Activity. [Related pubchem assays (depositor defined):AID504439]
Chain of UDP-galactopyranose mutase (P9WIQ1 whole entry): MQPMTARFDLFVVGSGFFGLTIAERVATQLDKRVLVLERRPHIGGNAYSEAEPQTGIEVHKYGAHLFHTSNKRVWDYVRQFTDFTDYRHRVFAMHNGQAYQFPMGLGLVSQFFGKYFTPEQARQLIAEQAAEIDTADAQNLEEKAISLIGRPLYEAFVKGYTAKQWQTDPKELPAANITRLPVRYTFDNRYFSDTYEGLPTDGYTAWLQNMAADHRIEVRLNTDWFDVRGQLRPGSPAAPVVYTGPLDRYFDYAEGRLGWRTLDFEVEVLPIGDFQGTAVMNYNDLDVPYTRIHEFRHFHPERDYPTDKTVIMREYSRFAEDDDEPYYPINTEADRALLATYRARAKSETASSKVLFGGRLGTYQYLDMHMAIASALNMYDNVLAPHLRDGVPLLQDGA

Beta Lactamase = Beta Lactamase (Pseudomonas aeruginosa, UniProt Q932Y6); test: beta-lactamase reporter inhibitor potency, dose response, artefact control for TLR9-MyD88 binding inhibitor project, BLA reporter cells, FRET fluorescence (AID 588341); format: cell-based;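 note: cell based assay in CHO-K1 cells stably expressing beta-lactamase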
CHO = test: cytotoxicity in TLR9-MyD88 CHO cells, dose response, cytotoxicity control for TLR9-MyD88 binding inhibitor project, cell-based, luminescence (AID 588339); format: functional, hamster; conditions: Cricetulus griseus;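 note: CHO cells stably coexpressing TLR9 and MyD88 fusions from primary screen; compound exposure lasted 48 hours before viability readout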
HeLa = test: HeLa cell cytotoxicity, dose response, cytotoxicity control, 48 h, plate reader, cherry-picks (AID 504942); format: functional, cell-based; conditions: Homo sapiens
Melanocortin receptor 4 = Melanocortin receptor 4 (Homo sapiens, UniProt P32245); format: functional, cell-based;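 note: Cell-based assay with luminescence read-out, confirmatory dose-response testing for agonist activity of biased ligands at MC4R; human U2OS cells with tagged receptor and beta-arrestin; potency of agonists that increase receptor coupling to beta-arrestin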
Chain of Melanocortin receptor 4 (P32245 whole entry): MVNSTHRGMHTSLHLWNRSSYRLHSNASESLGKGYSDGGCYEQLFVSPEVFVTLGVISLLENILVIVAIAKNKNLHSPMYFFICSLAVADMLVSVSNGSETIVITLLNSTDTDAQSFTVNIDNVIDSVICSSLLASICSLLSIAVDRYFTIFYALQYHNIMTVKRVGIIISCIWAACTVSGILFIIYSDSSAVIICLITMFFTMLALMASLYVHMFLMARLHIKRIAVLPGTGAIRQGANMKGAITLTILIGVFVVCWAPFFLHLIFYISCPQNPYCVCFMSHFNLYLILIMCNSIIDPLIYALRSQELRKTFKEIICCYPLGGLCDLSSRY

[25] = molecular target: Acyl-homoserine lactone acylase PvdQ (Pseudomonas aeruginosa (strain LESB58), UniProt Q9I194); test: P. aeruginosa PvdQ acylase inhibitors, dose response, biochemical, fluorescence, plate reader and imaging, cherry-picks (AID 493231)
Keap1/Nrf2 = Keap1/Nrf2 (Homo sapiens, UniProt Q14145); test: Keap1-Nrf2 protein-protein interaction inhibitors, dose response, biochemical, fluorescence polarization, cherry-picked samples (AID 588683)

Chain of Dual specificity protein phosphatase 3 (P51452 whole entry): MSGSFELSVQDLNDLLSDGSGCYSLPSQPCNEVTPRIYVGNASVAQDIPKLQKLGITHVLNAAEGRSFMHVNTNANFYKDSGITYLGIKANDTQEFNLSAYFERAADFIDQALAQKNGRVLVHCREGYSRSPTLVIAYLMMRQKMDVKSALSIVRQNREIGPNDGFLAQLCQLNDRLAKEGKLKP

In the case of COc1ccc(-c2nnc(Nc3nc4ccc(SC)cc4s3)o2)cc1, the IC50 [1] is reported as 15.4 µM (active).
For Cc1c(Cl)cccc1NC(=O)C1NC(=O)CC1c1ccccc1 (stereo not given), the AC50 (Escherichia coli) was 27.6 µM (active).
For O=C1NC(=O)/C(=C/c2ccccc2Oc2ccc(Cl)cc2)S1, the EC50 [2] was > 160 µM (inactive), the EC50 (Streptococcus) was 7.13 µM (active) and the IC50 (Phospholipase A2) was 13.9 µM (active). The EC50 [3] was 7.87 µM (active), the IC50 (Cysteine protease ATG4B) was 9.09 µM (active) and the EC50 (Streptokinase A) was > 50 µM (not active). For the same molecule, the EC50 [4] was 5.01 µM (active).
In the case of NC(=O)CC(c1ccccc1)c1ccco1 (stereo not given), the AC50 (Cytochrome P450 2D6) is reported as “inconclusive” and the AC50 (Cytochrome P450 2C19) is reported as 28.2 µM (inconclusive).
For CC(=O)OC(C)(C)/C=C/C(=O)[C@](C)(O)C1[C@H](O)C[C@@]2(C)C3CC=C4C(C[C@H](O)C(=O)C4(C)C)[C@]3(C)C(=O)C[C@]12C (stereo not given in full), the IC50 [5] was > 80 µM (inactive) and the IC50 (Jurkat [6]) was 3.03 µM (active).
With C=CCN1C(=O)/C(=C\C=C2\N(C)c3ccccc3C2(C)C)SC1=S the IC50 [7] was > 40 µM (not active), the EC50 (Beta-galactosidase) was > 40 µM (inactive) and the IC50 [8] was 8.19 µM (active). For the same molecule, the EC50 [9] was > 150 µM (not active), the EC50 (BJ [10]) was > 150 µM (not active) and the EC50 (BJ [11]) was > 150 µM (not active). The IC50 [12] was 11 µM (active), the IC50 [13] was 15.9 µM (inactive) and the EC50 [14] was > 32 µM (inactive). The EC50 (BJ [15]) was 42.9 µM (active) and the IC50 [16] was 33.4 µM (active).
With O=C(OC1CCN(c2ccc([N+](=O)[O-])cc2)CC1)c1ccccc1 the AC50 (Cytochrome P450 3A4) was “inconclusive” and the AC50 (Cytochrome P450 2C19) was 0.794 µM (inconclusive).
With CNC(=O)CCc1nc(-c2ccc(C)cc2)no1 the IC50 (Jurkat [17]) was > 80 µM (inactive), the IC50 (HEK293 [18]) was > 80 µM (inactive) and the IC50 (HEK293 [19]) was > 80 µM (inactive).
With Cc1ccc(O)c2c1C1C=CCC1C(C(=O)O)N2 (stereo not given) the IC50 [20] was > 100 µM (inactive), the IC50 [21] was 2.63 µM (active) and the IC50 [22] was > 100 µM (not active). For the same molecule, the IC50 [23] was 86.4 µM (active).
With O=C(NCc1cccc(F)c1)c1cccc2c1C(=O)c1ccc(N3CCC(Cc4ccccc4)CC3)cc1S2(=O)=O the AC50 [24] was 5.93 µM (active), the IC50 (Beta Lactamase) was 3.21 µM (active) and the IC50 (CHO) was > 49.8 µM (inactive).
In the case of Cc1ccc(O)c(C(=O)/C=C/c2ccc3c(c2)OCCO3)c1, the AC50 (HeLa) is reported as 73.2 µM (active), the EC50 (Melanocortin receptor 4) is reported as > 89.2 µM (inactive) and the AC50 [25] is reported as 1.14 µM (active).
With CCCCOc1nc2nc(-c3ccco3)n(Cc3ccco3)c(N)c-2c1C#N the AC50 (Keap1/Nrf2) was > 52 µM (inactive).
